Experimental data reported in patent US20110105389A1 (priority 2009, published 2011).
Like-named read-outs stand apart in the source and are kept apart here.

Legend:
[1] = system: rat stomach fundus strips; test: Ex-vivo potency evaluation on the rat stomach fundus (inhibition of ghrelin-induced contractility), Method B10; settings: EFS
Method: B10. Ex-vivo Potency Evaluation on the Rat Stomach Fundus
Fundus strips (approximately 0.4×1 cm) were cut from the stomach of adult male Wistar rats parallel to the circular muscle fibers. They were placed between two platinum ring electrodes, 1 cm apart (Radnoti, ADlnstruments, USA) in 10 ml tissue baths containing Krebs solution bubbled with 5% CO2 in O2 and maintained at 37° C. Tissues were suspended under 1.5 g resting tension. Changes of tension were measured isometrically with force transducers and recorded with a PowerLab 8/30 data acquisition system (ADlnstruments, USA). Tissues were allowed to equilibrate for 60 min during which time bath solutions were changed every 15 min.
EFS was achieved by applying 0.5 ms pulses, 5 Hz frequency, at a maximally effective voltage of 70 V. EFS was applied for 30 sec at 3 min intervals for a 30 min initial period. This initial period was separated by a […] interval with wash out of the bath solution. Then, a second period of stimulation was started. […] Responses to the agents were measured and expressed as % of the mean of three or four pre-drug responses to EFS. All compounds were dissolved at 1 mM in distilled water or MeOH, as stock solutions.
IC50 values for the inhibition of ghrelin-induced contractility by representative compounds of the invention are presented in Table 7.

[2] = Caco-2 permeability, Method B7; assay type: in vitro ADME, human; settings: human; for Papp A→B at 60 min, 10 μM / Papp B→A at 60 min, 10 μM: Caco-2, 10 μM, without P-gp inhibitor; for efflux ratio at 60 min, 10 μM: Caco-2, without P-gp inhibitor, read-out: Efflux ratio Papp B2A/Papp A2B
Description: (§1) B7. Determination of Caco-2 Permeability
(§2) The Caco-2 cell line, derived from a human colorectal carcinoma, has become an established in vitro model for the prediction of drug absorption across the human intestine. (Sun, D.; Yu, L. X.; Hussain, M. A.; Wall, D. A.; Smith, R. L.; Amidon, G. L. Curr. Opin. Drug Discov. Devel. 2004, 7, 75-85; Bergstrom, C. A. Basic Clin. Pharmacol. Toxicol. 2005, 96, 156-61; Balimane, P. V.; Han, Y. H.; Chong, S. AAPS J. 2006, 8, E1-13; Shah, P.; Jogani, V.; Bagchi, T.; Misra, A. Biotechnol. Prog. 2006, 22, 186-198.) When cultured on semi-permeable membranes, Caco-2 cells differentiate into a highly functionalized epithelial barrier with remarkable morphological and biochemical similarity to the small intestinal columnar epithelium. Fully differentiated cell monolayers can be used to assess the membrane transport properties of novel compounds.
(§3) Assays to determine the permeability of compounds of the invention utilizing Caco-2 cells are commercially available, for example NoAb BioDiscoveries (Mississaugua, ON, Canada) and Absorption Systems (Exton, Pa., USA).
(§4) Permeability across the Caco-2 cell layer was determined by growing the cells on a membrane placed between two (donor and acceptor) chambers. Drug candidates are typically added to the apical (A) side of the cell layer and their appearance in the basolateral (B) side is measured over incubation time. Permeability in this direction represents intestinal absorption. Permeability may also be determined from the basolateral to the apical side of the Caco-2 cell. […]
(§5) Permeability (10 μM) for compounds of the invention in the apical to basolateral and basolateral to apical direction were tested in duplicate. Samples will be collected from the donor and acceptor chambers at the beginning (0 min) and following 60 min of incubation at 37° C. and stored frozen at −70° C. until bioanalysis. Samples for each test compound generated from the Caco-2 permeability assay were further analyzed by LC-MS-MS. The permeability of [^3H]-mannitol and [^3H]-propranolol were determined in parallel as controls.
(§6) The permeability coefficient (Papp) of each compound and radiolabeled standard was determined using the following equation: […]
(§7) where dQ/dT represents the permeability rate, Ci denotes the initial concentration in the donor compartment, and A represents the surface area of the filter. Ci is determined from the mean concentration of duplicate samples taken prior to addition to the donor compartment. Permeability rates were calculated by plotting the cumulative amount of compound measured in the acceptor compartment over time and determining the slope of the line by linear regression analysis. The duplicate and mean apical to basolateral and basolateral to apical Papp's were reported for each compound and standard. […]

CYP3A4 = CYP3A4 (Homo sapiens, UniProt P08684); test: Cytochrome P450 inhibition, Method B6 (two substrates); settings: read-out: IC50 CYP 3A4
Sequence of CYP3A4 (P08684 whole entry): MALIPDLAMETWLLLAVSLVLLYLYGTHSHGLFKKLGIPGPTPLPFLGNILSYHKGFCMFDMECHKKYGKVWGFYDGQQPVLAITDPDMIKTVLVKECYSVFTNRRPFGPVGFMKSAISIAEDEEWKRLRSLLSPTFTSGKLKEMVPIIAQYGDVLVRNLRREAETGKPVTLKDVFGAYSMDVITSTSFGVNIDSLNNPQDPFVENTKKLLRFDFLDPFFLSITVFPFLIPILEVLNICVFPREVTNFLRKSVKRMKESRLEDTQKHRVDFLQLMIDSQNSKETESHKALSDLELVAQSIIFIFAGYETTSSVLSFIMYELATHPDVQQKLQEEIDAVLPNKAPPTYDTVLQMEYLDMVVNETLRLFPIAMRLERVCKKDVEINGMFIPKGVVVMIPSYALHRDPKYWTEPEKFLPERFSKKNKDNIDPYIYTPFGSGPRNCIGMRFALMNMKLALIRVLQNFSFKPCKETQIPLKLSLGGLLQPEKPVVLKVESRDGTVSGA

hERG channel = target: T1, hERG channel (Homo sapiens, UniProt Q12809); test: hERG channel inhibition (whole cell IKr currents, HEK293), Method B16; assay type: cell-based; settings: in comparison to vehicle (0.1% DMSO) controls, up to 100 μM
T1 construct: expressed in transfected cells; host or cells: HEK293
T1 sequence (Q12809 whole entry): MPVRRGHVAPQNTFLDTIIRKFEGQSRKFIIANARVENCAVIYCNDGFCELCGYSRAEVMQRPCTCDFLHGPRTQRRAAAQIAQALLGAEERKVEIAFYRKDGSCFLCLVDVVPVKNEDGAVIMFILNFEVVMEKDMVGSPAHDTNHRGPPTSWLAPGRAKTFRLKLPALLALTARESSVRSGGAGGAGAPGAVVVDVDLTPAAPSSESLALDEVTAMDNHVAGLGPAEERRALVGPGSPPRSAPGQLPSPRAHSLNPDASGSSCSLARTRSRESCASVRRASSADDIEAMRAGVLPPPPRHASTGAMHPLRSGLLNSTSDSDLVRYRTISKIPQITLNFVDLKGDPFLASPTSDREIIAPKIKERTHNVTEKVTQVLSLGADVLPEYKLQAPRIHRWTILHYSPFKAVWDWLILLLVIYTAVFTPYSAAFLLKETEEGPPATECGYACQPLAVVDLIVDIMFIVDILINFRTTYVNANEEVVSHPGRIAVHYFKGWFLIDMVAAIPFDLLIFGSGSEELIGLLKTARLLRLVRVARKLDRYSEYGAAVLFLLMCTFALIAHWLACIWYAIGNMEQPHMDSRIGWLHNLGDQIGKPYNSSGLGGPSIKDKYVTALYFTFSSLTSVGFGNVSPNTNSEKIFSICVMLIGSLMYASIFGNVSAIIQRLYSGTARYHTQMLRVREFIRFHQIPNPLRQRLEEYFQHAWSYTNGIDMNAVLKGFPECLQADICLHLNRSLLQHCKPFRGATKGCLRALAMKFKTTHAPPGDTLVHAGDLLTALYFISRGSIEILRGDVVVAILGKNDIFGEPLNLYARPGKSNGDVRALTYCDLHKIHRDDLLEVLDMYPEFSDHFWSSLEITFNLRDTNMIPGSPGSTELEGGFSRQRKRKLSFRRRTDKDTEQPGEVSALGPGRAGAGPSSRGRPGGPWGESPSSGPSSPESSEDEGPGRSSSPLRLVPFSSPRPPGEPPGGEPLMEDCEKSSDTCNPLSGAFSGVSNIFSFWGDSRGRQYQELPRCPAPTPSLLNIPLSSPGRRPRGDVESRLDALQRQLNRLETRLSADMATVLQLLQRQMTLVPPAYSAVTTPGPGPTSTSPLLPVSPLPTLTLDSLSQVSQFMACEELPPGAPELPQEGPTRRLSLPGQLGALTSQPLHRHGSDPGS
Description: B16. hERG Channel Inhibition
Direct interactions of compounds with the hERG channel account for the majority of known cases of cardiotoxicity. […]

Caco-2 cells = test: Caco-2 permeability, Method B7; assay type: in vitro ADME, human; settings: for A to B Mean Papp / B to A Mean Papp: Caco-2, 10 μM, without P-gp inhibitor; for Efflux ratio Papp B2A/Papp A2B: Caco-2, without P-gp inhibitor
Description: as §1, §2, §3, §4, §5, §6, §7

[3] = Table 4b, midazolam used as substrate
[4] = Table 4a, nifedipine used as substrate

Structure (SMILES)	IC50 [1]	Papp A→B at 60 min, 10 μM [2]	Papp B→A at 60 min, 10 μM [2]	efflux ratio at 60 min, 10 μM [2]	A to B Mean Papp (Caco-2 cells)	B to A Mean Papp (Caco-2 cells)	Efflux ratio Papp B2A/Papp A2B (Caco-2 cells)	IC50 (CYP3A4; [4])	IC50 (CYP3A4; [3])	effect on hERG channel function (hERG channel)
CC[C@@H]1CCc2ccc(F)cc2OCCN[C@@H](C(C)C)C(=O)N(C)[C@@H](C(C)O)C(=O)N[C@H](Cc2c[nH]c3ccccc23)C(=O)N1 (stereo partly shown) [Compound 1505]	12.5 nM	0.091 ×10⁻⁶ cm/s	26.7 ×10⁻⁶ cm/s	299	–	–	–	–	–	–
CC(C)C1NCCOc2cc(F)ccc2C#CCNC(=O)C(Cc2c[nH]c3ccccc23)NC(=O)C(C(C)O)N(C)C1=O (stereo not shown) [Compound 1693]	–	–	–	–	–	–	–	–	2200 nM	–
CC(C)[C@@H]1NCCOc2ccccc2C#CCNC(=O)[C@@H](Cc2ccccc2)NC(=O)[C@H](C(C)O)N(C)C1=O (stereo partly shown) [Compound 1712]	3.4 nM	–	–	–	–	–	–	–	–	no significant effect
CC(O)[C@H]1C(=O)N[C@H](Cc2c[nH]c3ccccc23)C(=O)N[C@H](C)C#Cc2ccc(F)cc2O[C@H](C)CN[C@@H](C2(C)CC2)C(=O)N1C (stereo partly shown) [Compound 1720]	–	–	–	–	–	–	–	–	1600 nM	–
CC(C)[C@@H]1NCC2CCc3cccc(c3O2)CCCNC(=O)[C@@H](Cc2ccccc2)NC(=O)[C@H](C(C)O)N(C)C1=O (stereo partly shown) [Compound 1777]	7.8 nM	–	–	–	0.274 ×10⁻⁶ cm/s	53.5 ×10⁻⁶ cm/s	195	6000 nM	–	–
CC(O)[C@H]1C(=O)N[C@H](Cc2ccccc2)C(=O)NCCCc2cccc3c2OC(CC3)CN[C@@H](C2CC2)C(=O)N1C (stereo partly shown) [Compound 1778]	12 nM	0.193 ×10⁻⁶ cm/s	32.7 ×10⁻⁶ cm/s	169	–	–	–	–	–	–
CC[C@@H]1NCC2CCc3cccc(c3O2)CCCNC(=O)[C@@H](Cc2ccccc2)NC(=O)[C@H](C(C)O)N(C)C1=O (stereo partly shown) [Compound 1780]	12.1 nM	0.099 ×10⁻⁶ cm/s	29.5 ×10⁻⁶ cm/s	297	–	–	–	–	–	–
CC(C)[C@@H]1NCCOc2ccccc2C2CCC(C2)NC(=O)[C@@H](Cc2c[nH]c3ccccc23)NC(=O)[C@H](C(C)O)N(C)C1=O (stereo partly shown) [Compound 1843]	2.3 nM	–	–	–	0.142 ×10⁻⁶ cm/s	13.4 ×10⁻⁶ cm/s	95	6500 nM	–	–
CC(C)[C@@H]1NCCOc2ccccc2C2CCC(C2)NC(=O)[C@@H](Cc2ccccc2)NC(=O)[C@H](C(C)O)N(C)C1=O (stereo partly shown) [Compound 1848]	15 nM	0.266 ×10⁻⁶ cm/s	64.2 ×10⁻⁶ cm/s	241	–	–	–	–	–	no significant effect
CC(O)[C@H]1C(=O)N[C@H](Cc2ccccc2)C(=O)NCC#Cc2c(F)cccc2OCCN[C@@H](C2(C)CC2)C(=O)N1C (stereo partly shown) [Compound 1876]	60 nM	0.097 ×10⁻⁶ cm/s	28 ×10⁻⁶ cm/s	288	–	–	–	–	–	–
CC(O)[C@H]1C(=O)N[C@H](Cc2ccccc2)C(=O)NCC#Cc2ccccc2OCCN[C@@H](C2(C)CC2)C(=O)N1C (stereo partly shown) [Compound 1878]	30 nM	0.144 ×10⁻⁶ cm/s	21.7 ×10⁻⁶ cm/s	151	–	–	–	–	–	–
CC(O)[C@H]1C(=O)N[C@H](Cc2ccccc2)C(=O)NCC#Cc2ccc(F)cc2OCCN[C@@H](C2(C)CC2)C(=O)N1C (stereo partly shown) [Compound 1918]	26 nM	0.112 ×10⁻⁶ cm/s	42.6 ×10⁻⁶ cm/s	380	–	–	–	–	–	–

The next lines start with results.

IC50 [1]	Papp A→B at 60 min, 10 μM [2]	Papp B→A at 60 min, 10 μM [2]	efflux ratio at 60 min, 10 μM [2]	A to B Mean Papp (Caco-2 cells)	B to A Mean Papp (Caco-2 cells)	Efflux ratio Papp B2A/Papp A2B (Caco-2 cells)	IC50 (CYP3A4; [4])	Structure (SMILES)	IC50 (CYP3A4; [3])	effect on hERG channel function (hERG channel)
2900 nM	–	–	–	–	–	–	–	Cc1cccc(C[C@H]2NC(=O)[C@H](C(C)O)N(C)C(=O)[C@H](C(C)C)NCCOc3ccccc3C[C@H](O)CNC2=O)c1 (stereo partly shown) [Compound 1453]	–	–
650 nM	0.11 ×10⁻⁶ cm/s	12 ×10⁻⁶ cm/s	109	–	–	–	–	CC(C)[C@@H]1NCCOc2ccccc2C[C@H](O)[C@@H](C)NC(=O)[C@@H](Cc2cccc(F)c2)NC(=O)[C@H](C(C)O)N(C)C1=O (stereo partly shown) [Compound 1503]	–	–
0.1 nM	0.131 ×10⁻⁶ cm/s	41.8 ×10⁻⁶ cm/s	318	–	–	–	–	CC(C)[C@@H]1NCCOc2ccccc2C#C[C@@H](C)NC(=O)[C@@H](Cc2ccccc2)NC(=O)[C@H](C(C)O)N(C)C1=O (stereo partly shown) [Compound 1688]	–	–
1.6 nM	0.291 ×10⁻⁶ cm/s	58.9 ×10⁻⁶ cm/s	203	–	–	–	–	CC(C)[C@@H]1NCCOc2ccccc2C2CCC(C2)NC(=O)[C@@H](Cc2ccc(F)cc2)NC(=O)[C@H](C(C)O)N(C)C1=O (stereo partly shown) [Compound 1903]	–	–
2 nM	0.171 ×10⁻⁶ cm/s	36.9 ×10⁻⁶ cm/s	216	–	–	–	–	CC(C)[C@@H]1NCCOc2cccc(F)c2C#CCNC(=O)[C@@H](Cc2ccccc2)NC(=O)[C@H](C(C)O)N(C)C1=O (stereo partly shown) [Compound 1929]	–	no significant effect
